For this test, the target named is T1, human full length Hsp90 (Homo sapiens, UniProt P07900).
T1 construct: amino acid residues 1 to 732 of human Hsp90 (GenBank: BC121062.2); made in house; host or cells: E. coli BL21DE3 (pET15b)
As to the kind of experiment: Fluorescence polarization Hsp90 competitive binding assay (GM-FITC displacement). To be noted: for inhibition at 10 µM: compound at 10 μM, read-out: Biochemical Potency % Inhibition at 10 μM; for inhibition at 1 µM: compound at 1 μM, read-out: Biochemical Potency % Inhibition at 1 μM. The protocol:
Hsp90 binding assays was performed generally according to the procedure described in J. Biomol. […] Hsp90 inhibitors were solubilized in DMSO at a stock concentration of 50 mM. […] Eighty five μl of binding assay buffer (20 mM HEPES, pH-7.5, 50 mM KCl, 5 mM MgCl2, 20 mM sodium molybdate, 0.01% NP-40, 2 mM DTT, and 0.1 mg/ml BSA) was added to the wells of a 96 well black plate placed on ice. […] Next, 10 μl either binding assay buffer alone (control) or human full length Hsp90 protein diluted in the binding assay buffer was added to achieve a final concentration of 50 nM. The plates were incubated at 4° C. on a plate shaker for 24 h. Two μl of 50× GM-FITC (9 nM final) in DMSO was added to all wells and the plate was incubated at ambient temperature for 1 h with shaking. Fluorescence polarization readings were taken in duplicate at excitation and emission wavelengths of 480 nm and 500 nm respectively. Specific binding was calculated by subtracting polarization values in the presence of Hsp90 from those in the absence of Hsp90. To calculate percent inhibition the specific binding values obtained for GA-FITC in the presence of compound were compared to values for GA-FITC in the absence of compound (DMSO only).
In general terms: Fluorescence polarisation rises when a labelled molecule tumbles more slowly, as on binding a larger partner.

[1] abbreviates: Table 1, 50 nM Hsp90, 9 nM GM-FITC, read-out: Biochemical Potency IC50.
Where [2] appears, read: Table II, binding affinities ranked by potency.
Where [3] appears, read: Table II, binding affinities ranked by potency, read-out: IC50.

Where two headings read alike, the source gives them in different places. Bounds are passed on as bounds.

Consider “6-Chloro-N4-((4-methoxy-3,5-dimethylpyridin-2-yl)methyl)-N4-(3-methoxyphenethyl)pyrimidine-2,4-diamine [SBI-0640606]”, for which the IC50 was found to be 432 nM under setting [1] and 432 nM under setting [3]. The Ki under setting [2] was found to be 108 nM.

On to “6-Chloro-N4-((4-methoxy-3,5-dimethylpyridin-2-yl)methyl)-N4-(4-methoxyphenethyl)pyrimidine-2,4-diamine [SBI-0640605]”, for which the IC50 was determined as 350 nM under setting [1] and 350 nM under setting [3]. The compound further returned a Ki under setting [2] of 88 nM.

Turning to `COc1cc(CNc2cc(Cl)nc(N)n2)cc(OC)c1OC` [SBI-0206664], the inhibition at 10 µM worked out at 25%. Also, under setting [2], the Ki was > 2500 nM. Besides, the IC50 under setting [3] is > 10000 nM.

Regarding `COc1c(C)cnc(CNc2cc(Cl)nc(N)n2)c1C` [SBI-0206665], the inhibition at 1 µM was 7% and the inhibition at 10 µM stood at 61%. Further, under setting [1], the IC50 turned out to be 7500 nM. This compound also had a Ki under setting [2] of 1000 nM. Under setting [3], the IC50 was 4000 nM.

As to `COc1cccc(CNc2cc(Cl)nc(N)n2)c1` [SBI-0630160], the inhibition at 10 µM amounted to 13%. Further, under setting [2], the Ki was > 2500 nM. In addition, under setting [3], the IC50 is > 10000 nM.

For `COc1ccc(CNc2cc(C(F)(F)F)nc(N)n2)c(OC)c1OC` [SBI-0630180], the inhibition at 10 µM is 4%. The Ki under setting [2] is > 2500 nM. Under setting [3], the IC50 is > 10000 nM.

As for `Cc1cc(C)cc(CNc2cc(C(F)(F)F)nc(N)n2)c1` [SBI-0633823], the inhibition at 10 µM was 17%. In addition, the Ki under setting [2] is > 2500 nM. In addition, the IC50 under setting [3] is > 10000 nM.

Take `COc1cc(NCc2cc(OC)c(OC)c(OC)c2)nc(N)n1` [SBI-0633825]: the IC50 is, setting by setting: under setting [1], > 250000 nM; under setting [3], > 10000 nM. In addition, under setting [2], the Ki is > 2500 nM.

Take `Nc1nc(Cl)cc(NCc2ccc(-c3ccccc3)cc2)n1` [SBI-0633826]: the inhibition at 10 µM turned out to be 21%. Also, under setting [2], the Ki was > 2500 nM. The IC50 under setting [3] is > 10000 nM.

Take `COc1cc(CNc2ccnc(N)n2)cc(OC)c1OC` [SBI-0634911]: the IC50 by setting is: under setting [1], > 250000 nM; under setting [3], > 10000 nM. Under setting [2], the Ki was > 2500 nM.

On to `COc1ccc(CNc2ccnc(N)n2)cc1OC` [SBI-0634912], for which the IC50 runs as follows: under setting [1], > 250000 nM; under setting [3], > 10000 nM. The Ki under setting [2] was > 2500 nM.

For `COc1cc(CNc2nc(N)nc3[nH]ccc23)cc(OC)c1OC` [SBI-0635446], the inhibition at 10 µM is 10%. The Ki under setting [2] was > 2500 nM. Further, the IC50 under setting [3] is > 10000 nM.

Consider `Nc1nc(Cl)cc(Nc2ccc3c(c2)OCO3)n1` [SBI-0636438], for which the inhibition at 10 µM came to 18%. In addition, the Ki under setting [2] is > 2500 nM. The IC50 under setting [3] was > 10000 nM.

Consider `Nc1nc(Cl)cc(NCc2ccc(-c3ccc(Cl)cc3F)cc2)n1` [SBI-0638966], for which the inhibition at 10 µM was 34%. The Ki under setting [2] was > 2500 nM. Besides, the IC50 under setting [3] was > 10000 nM.

For `Nc1nc(Cl)cc(NCc2ccc(Oc3ccccc3)cc2)n1` [SBI-0638967], the inhibition at 10 µM came out at 10%. Besides, under setting [2], the Ki is > 2500 nM. Under setting [3], the IC50 was > 10000 nM.

On to `CCOc1ccc(-c2ccc(CNc3cc(Cl)nc(N)n3)cc2)cc1` [SBI-0638969], for which the inhibition at 10 µM is 3%. In addition, the Ki under setting [2] was > 2500 nM. In addition, the IC50 under setting [3] is > 10000 nM.

As for `COc1c(C)cnc(CNc2nc(N)nc3[nH]cnc23)c1C` [SBI-0639182], the inhibition at 1 µM was determined as 4% and the inhibition at 10 µM came to 19%. The Ki under setting [2] was > 2500 nM. The IC50 under setting [3] is > 10000 nM.

For the compound `COc1cccc2c1ccn2-c1cc(N)c(C(N)=O)c(NC2CCOCC2)c1` [SBI-0639186], the inhibition at 1 µM turned out to be 5% and the inhibition at 10 µM is 10%. Under setting [2], the Ki was > 2500 nM. Moreover, under setting [3], the IC50 was > 10000 nM.

Turning to `Cc1cnc(CNc2cc(Cl)nc(N)n2)c(C)c1Cl` [SBI-0639217, 6-Chloro-N4-((4-chloro-3,5-dimethylpyridin-2-yl)methyl)pyrimidine-2,4-diamine], the inhibition at 1 µM amounted to 47% and the inhibition at 10 µM was 93%. Moreover, the Ki under setting [2] was determined as 300 nM. Besides, the IC50 under setting [3] came to 1200 nM.

With `Cc1cnc(CNc2cc(Cl)nc(N)n2)c(C)c1Br` [SBI-0639218, N4-((4-Bromo-3,5-dimethylpyridin-2-yl)methyl)-6-chloropyrimidine-2,4-diamine], the inhibition at 1 µM came out at 44% and the inhibition at 10 µM was determined as 94%. In addition, under setting [2], the Ki is 368 nM. The concentration for half-maximal inhibition (IC50) under setting [3] came to 1470 nM.

With `COc1c(C)cnc(CN(C)c2cc(Cl)nc(N)n2)c1C` [SBI-0639219, 6-Chloro-N4-((4-methoxy-3,5-dimethylpyridin-2-yl)methyl)-N4-methylpyrimidine-2,4-diamine], the inhibition at 1 µM was 57% and the inhibition at 10 µM was 94%. Under setting [2], this compound displayed a Ki of 213 nM. Also, the IC50 under setting [3] is 850 nM.

For `Cc1cnc(CNc2cc(Cl)nc(N)n2)c(C)c1I` [SBI-0639220, 6-Chloro-N4-((4-iodo-3,5-dimethylpyridin-2-yl)methyl)pyrimidine-2,4-diamine], the inhibition at 1 µM was determined as 66% and the inhibition at 10 µM was 98%. This compound displayed a Ki under setting [2] of 110 nM. Under setting [3], the IC50 was determined as 440 nM.

`COc1c(C)cnc(CN(CCCO)c2cc(Cl)nc(N)n2)c1C` [SBI-0639349, 3-((2-Amino-6-chloropyrimidin-4-yl)((4-methoxy-3,5-dimethylpyridin-2-yl)methyl)amino)propan-1-ol]: the IC50 under setting [1] came to 1370 nM and the IC50 under setting [3] was found to be 1370 nM. Moreover, the Ki under setting [2] turned out to be 343 nM.

In the case of `CCCN(Cc1ncc(C)c(OC)c1C)c1cc(Cl)nc(N)n1` [SBI-0639350, 6-Chloro-N4-((4-methoxy-3,5-dimethylpyridin-2-yl)methyl)-N4-propylpyrimidine-2,4-diamine], the IC50 was 1100 nM under setting [1] and 1100 nM under setting [3]. Moreover, under setting [2], the Ki amounted to 275 nM.

Regarding `COc1c(C)cnc(CN(Cc2ccccc2)c2cc(Cl)nc(N)n2)c1C` [SBI-0639351, N4-Benzyl-6-chloro-N4-((4-methoxy-3,5-dimethylpyridin-2-yl)methyl)pyrimidine-2,4-diamine], the IC50 worked out at 2210 nM under setting [1] and 2210 nM under setting [3]. Also, the Ki under setting [2] worked out at 553 nM.

Consider `COc1c(C)cnc(CN(c2cc(Cl)nc(N)n2)C(C)C)c1C` [SBI-0639352, 6-Chloro-N4-isopropyl-N4-((4-methoxy-3,5-dimethylpyridin-2-yl)methyl)pyrimidine-2,4-diamine], for which the IC50 under setting [1] is ≥ 32000 nM and the IC50 under setting [3] was > 32000 nM. For the same compound, the Ki under setting [2] is > 8000 nM.

Consider `CCCCN(Cc1ncc(C)c(OC)c1C)c1cc(Cl)nc(N)n1` [SBI-0639354, N4-butyl-6-chloro-N4-((4-methoxy-3,5-dimethylpyridin-2-yl)methyl)pyrimidine-2,4-diamine], for which the IC50 under setting [1] came to 719 nM and the IC50 under setting [3] was 720 nM. Moreover, the affinity under setting [2] corresponds to a Ki of 180 nM.

For the compound `C=CCN(Cc1ncc(C)c(OC)c1C)c1cc(Cl)nc(N)n1` [SBI-0639355, N4-Allyl-6-chloro-N4-((4-methoxy-3,5-dimethylpyridin-2-yl)methyl)pyrimidine-2,4-diamine], the IC50 is, setting by setting: under setting [1], 2870 nM; under setting [3], 2870 nM. Further, under setting [2], the affinity, expressed as Ki, was 718 nM.

In general, IC50 refers to the concentration that inhibits the measured activity by half. As usually defined, the Ki is a dissociation constant, usually derived from enzyme kinetics or from competition with a known ligand. One may read the inhibition as the relative decrease from the control value, in per cent.
